{
  "source": "paper PMC6667453",
  "about": "“Opportunistic complexes of E. coli L-asparaginases with citrate anions” (Scientific Reports, 2019)",
  "format_in_all_cases": "binding",
  "key": {"[1]": {"target": "T1, EcAII, type II L-asparaginase from Escherichia coli (Escherichia coli, UniProt P00805)", "T1 construct": "gene ansB; Met-(His)6-EcAII, N-terminal tag kept; secreted from E. coli triple asparaginase knockout", "T1 sequence (P00805 23-348)": "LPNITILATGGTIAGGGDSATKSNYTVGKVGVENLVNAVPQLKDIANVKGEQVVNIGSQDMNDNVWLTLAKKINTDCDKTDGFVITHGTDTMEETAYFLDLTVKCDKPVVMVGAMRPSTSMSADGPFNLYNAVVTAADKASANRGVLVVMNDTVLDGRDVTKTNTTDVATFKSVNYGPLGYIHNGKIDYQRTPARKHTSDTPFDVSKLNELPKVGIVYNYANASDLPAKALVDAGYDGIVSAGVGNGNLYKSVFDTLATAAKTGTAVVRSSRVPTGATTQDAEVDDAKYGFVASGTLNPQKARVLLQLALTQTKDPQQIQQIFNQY", "experiment": "X-ray crystal structure", "settings": "pH 7.0, 0.17 M ammonium citrate, 17% PEG3350, 100 K; non-covalent, all four active sites"}, "[2]": {"target": "T2, EcAII, type II L-asparaginase from Escherichia coli (Escherichia coli, UniProt P00805, D112T/K184T)", "T2 construct": "gene ansB; Met-(His)6-EcAII, N-terminal tag kept; secreted from E. coli triple asparaginase knockout", "T2 sequence (P00805 23-348 D112T/K184T)": "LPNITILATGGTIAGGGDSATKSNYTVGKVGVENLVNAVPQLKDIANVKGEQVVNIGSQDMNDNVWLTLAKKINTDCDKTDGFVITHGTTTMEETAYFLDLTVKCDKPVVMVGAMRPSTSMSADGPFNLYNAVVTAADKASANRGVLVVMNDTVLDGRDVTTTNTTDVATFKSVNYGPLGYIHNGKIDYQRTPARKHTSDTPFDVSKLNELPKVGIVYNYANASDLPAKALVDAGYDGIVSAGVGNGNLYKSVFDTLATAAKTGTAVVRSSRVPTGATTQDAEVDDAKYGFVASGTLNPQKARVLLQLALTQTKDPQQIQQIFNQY", "experiment": "X-ray crystal structure", "settings": "pH 5.0 (also pH 5.6, 6nx7; pH 6.2, 6nx8), 0.17 M citrate, 10 mM L-Asn, 293 K; non-covalent, one of two active sites (protomer B); stabilised by His6-tag of symmetry mate, called an artifact"}, "[3]": {"target": "T1, EcAII, type II L-asparaginase from Escherichia coli", "experiment": "intact-protein LC/MS (electrospray)", "settings": "pH 4.0, 200 mM citrate; no L-Asp; covalent (addition of citrate minus water)"}, "[4]": {"target": "T3, EcAI (AnsA), type I L-asparaginase from E. coli (Escherichia coli, UniProt P0A962)", "T3 construct": "four protomers (two dimers) in the asymmetric unit", "T3 sequence (P0A962 1-338)": "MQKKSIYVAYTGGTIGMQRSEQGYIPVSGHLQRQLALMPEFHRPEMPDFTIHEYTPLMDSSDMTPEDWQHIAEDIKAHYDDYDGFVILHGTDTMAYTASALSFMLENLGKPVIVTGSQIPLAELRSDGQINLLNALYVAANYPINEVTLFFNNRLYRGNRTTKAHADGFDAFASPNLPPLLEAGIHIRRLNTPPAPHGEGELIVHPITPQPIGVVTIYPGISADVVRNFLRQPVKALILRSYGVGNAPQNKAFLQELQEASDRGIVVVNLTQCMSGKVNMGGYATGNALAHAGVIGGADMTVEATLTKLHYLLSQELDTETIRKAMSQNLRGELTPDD", "experiment": "X-ray crystal structure, re-refined from deposited data (2p2n)", "settings": "pH about 4.0 (0.1 M citrate, 1 M NaCl); covalent, acyl-enzyme ester to Thr14 OG1 in active site; re-interpretation of ligand first modelled as L-Asp/L-Asn"}},
  "note": "Counter-ions that a name gives are not always drawn.",
  "data": [
    {"smiles": "O=C(O)CC(O)(CC(=O)O)C(=O)O", "note": "[CIT, citrate]", "values": [
      {"measurement": "X-ray crystal structure", "setting": "[1]", "result": "The shape of this peak could be unambiguously interpreted as a citrate anion"},
      {"measurement": "X-ray crystal structure", "setting": "[2]", "result": "maps indicated clearly the presence of a citrate anion in this site"},
      {"measurement": "% abundance of adduct (+174.0) at 200 mM citrate", "setting": "[3]", "result": 38.1, "unit": "%"},
      {"measurement": "X-ray crystal structure, re-refined from deposited data (2p2n)", "setting": "[4]", "result": "substitution by citrate anions covalently linked to the side chain of Thr14"}
    ]}
  ]
}
